The values that follow come from patent US7504508B2, “PGD2 receptor antagonists for the treatment of inflammatory diseases” (Millennium Pharmaceuticals, Inc., priority 2002, dated 2009).

SMILES strings stand for the structures. Bounds are passed on as bounds.

This experiment deals with T1, cloned human CRTH2 receptor (Homo sapiens, UniProt Q9Y5Y4).
T1 construct: purchased Biosignal; host or cells: HEK-293 cells stably expressing human CRTH2 and G-alpha-16 (membranes)
T1 sequence (Q9Y5Y4 1-395): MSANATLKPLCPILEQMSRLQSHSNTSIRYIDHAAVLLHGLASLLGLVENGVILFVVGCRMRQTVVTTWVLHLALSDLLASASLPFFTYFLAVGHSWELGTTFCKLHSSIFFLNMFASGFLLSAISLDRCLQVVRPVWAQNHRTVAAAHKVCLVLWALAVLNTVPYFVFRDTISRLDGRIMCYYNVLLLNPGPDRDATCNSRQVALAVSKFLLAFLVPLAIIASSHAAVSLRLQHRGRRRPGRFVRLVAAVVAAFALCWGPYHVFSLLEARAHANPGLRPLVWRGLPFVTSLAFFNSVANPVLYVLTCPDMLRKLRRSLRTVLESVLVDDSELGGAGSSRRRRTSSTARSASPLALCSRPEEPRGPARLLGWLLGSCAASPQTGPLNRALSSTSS
In words: Radioligand membrane binding assay: inhibition of [3H] PGD2 binding to CRTH2 (Scintillation Proximity Assay). Conditions: inhibition of [3H] PGD2 binding to membranes of HEK-293 cells stably expressing human CRTH2; SPA; 10 point curve from 10 μM; room temperature, approximately 2 hours. How it is done: This radioligand membrane binding assay evaluates the ability of compounds to inhibit [^3H] Prostaglandin D2 (PGD2) binding to the cloned human CRTH2 receptor stably expressed in HEK-293 cells (expressing human CRTh2 receptor and α subunit or the heteronimeric G protein 16 were prepared by Biosignal Company) using Scintillation Proximity Assay.
A binding buffer containing 50 mM Tris-HCl (pH 7.5), 5 mM MgCl2 and 1 mM EDTA was prepared immediately prior to performing the assay. A bead/membrane solution at twice the final assay concentration comprising membranes (membranes bought from Biosignal) from the HEK-293 cells cloned to express CRTH2 receptor bound to and [3H] PGD2 at twotimes the final assay concentration were prepared and stored on ice before adding to wells. Cold PGD2 at twenty times the final assay concentration was prepared and stored on ice before adding to wells defining non-specific binding (NSB) corning plates #3653 were used for this assay.
10 mM stock concentrations of compounds in 100% DMSO were prepared and stored at room temperature. A 10 point concentration response curve was then constructed for each compound, starting at 10 μM (final assay concentration). The compounds were prepared at 40 times final assay concentrations with nine consequent-3-fold dilutions.
0.1 μl of each concentration of compound were added to the appropriate well of the 384 plate and 2 μl of cold PGD2 was added into the wells defining NSB. 20 μl of [^3H] PGD2 and then 20 μl of 2× of bead/membrane solution were then added to each well.
The plates were allowed to incubate at room temperature for approximately 2 hours and then counted on Packard Topcount using SPA tritium protocol for 1 minute/well.
The percent inhibition of PGD2 binding (PGD2 used at the KD value or lower) to the HEK-293 cell membranes was determined, the assay was always run as duplicate for n=1 for a total of n=2.

Regarding `CC(=O)N(c1ccccc1)[C@@H]1C[C@H](C)N(C(=O)C2CCCCC2)c2ccccc21` (racemic) [Compound A-157, (±)-Cis-N-(1-cyclohexanecarbonyl-2-methyl-1,2,3,4-tetrahydro-quinolin-4-yl)-N-phenyl-acetamide], the Ki was < 10 µM.

Regarding `COc1ccc(C(=O)N2c3ccccc3[C@H](N(C(C)=O)c3ccc(C(C)(C)C(=O)O)cc3)C[C@@H]2C)cc1` [Compound D-1, (2S,4R)-2-(4-{Acetyl-[1-(4-methoxy-benzoyl)-2-methyl-1,2,3,4-tetrahydro-quinolin-4-yl]-amino}-phenyl)-2-methyl-propionic acid], the Ki is < 10 µM.

For the molecule `COc1cccc(C(=O)N2c3ccccc3[C@H](N(C(C)=O)c3ccccc3)C[C@@H]2c2ccccc2)c1` (racemic) [Compound B-100, (±)-Cis-N-[1-(3-methoxy-benzoyl)-2-phenyl-1,2,3,4-tetrahydro-quinolin-4-yl]-N-phenyl-acetamide], the Ki was < 60 µM.

For `CC(=O)N(C)CC(=O)N(c1ccccc1)[C@@H]1C[C@H](C)N(C(=O)c2ccc(F)cc2)c2ccccc21` (racemic) [Compound A-49, (±)-Cis-2-(acetyl-methyl-amino)-N-[1-(4-fluoro-benzoyl)-2-methyl-1,2,3,4-tetrahydro-quinolin-4-yl]-N-phenyl-acetamide], the Ki is < 10 µM.

As for `CC(=O)N(c1ccccc1)[C@@H]1C[C@H](C)N(C(=O)c2cccn2C)c2ccccc21` (racemic) [Compound A-130, (±)-Cis-N-[2-methyl-1-(1-methyl-1H-pyrrole-2-carbonyl)-1,2,3,4-tetrahydro-quinolin-4-yl]-N-phenyl-acetamide], the Ki was < 10 µM.

With `COc1cccc(C(=O)N2CCC(N(C(C)=O)c3ccccc3)c3ccccc32)c1` (stereo not shown) [Compound F-3, N-[1-(3-Methoxy-benzoyl)-1,2,3,4-tetrahydro-quinolin-4-yl]-N-phenyl-acetamide], the Ki is < 10 µM.

`CCC(=O)N(c1ccc(Cl)cc1)[C@@H]1C[C@H](C(F)(F)F)N(C(=O)c2ccco2)c2ccc(OC)cc21` (racemic) [Compound B-111, (±)-Cis-N-(4-chloro-phenyl)-N-[1-(furan-2-carbonyl)-6-methoxy-2-trifluoromethyl-1,2,3,4-tetrahydro-quinolin-4-yl]-propionamide]: the inhibition constant (Ki) was < 10 µM.

Regarding `COc1ccc(C(=O)N2c3ccccc3[C@H](N(C(C)=O)c3cccc(C(=O)O)c3)C[C@@H]2C)cc1` (racemic) [Compound B-40, (±)-Cis-3-{acetyl-[1-(4-methoxy-benzoyl)-2-methyl-1,2,3,4-tetrahydro-quinolin-4-yl]-amino}-benzoic acid], the inhibitory constant (Ki) was < 10 µM.

Turning to `CCC(=O)N(c1ccc(Cl)cc1)[C@@H]1C[C@H](C)N(C(=O)c2ccc(F)cc2)c2ccc(OC)cc21` (racemic) [Compound B-59, (±)-Cis-N-(4-chloro-phenyl)-N-[1-(4-fluoro-benzoyl)-6-methoxy-2-methyl-1,2,3,4-tetrahydro-quinolin-4-yl]-propionamide], the Ki was < 10 µM.

For the molecule `COc1ccc(C(=O)N2c3ccccc3[C@H](N(C(C)=O)c3ccc(OCC(=O)O)cc3)C[C@@H]2C)cc1` [Compound D-10, (2S,4R)-(4-{Acetyl-[1-(4-methoxybenzoyl)-2-methyl-1,2,3,4-tetrahydro-quinolin-4-yl]-amino}-phenoxy)-acetic acid], the Ki is < 10 µM.

For the molecule `COc1cccc(C(=O)N2c3c(C)cccc3[C@H](N(C(C)=O)c3ccc(Cl)cc3)C[C@@H]2C)c1` (racemic) [Compound B-74, (±)-Cis-N-(4-chloro-phenyl)-N-[1-(3-methoxy-benzoyl)-2,8-dimethyl-1,2,3,4-tetrahydro-quinolin-4-yl]-acetamide], the Ki is < 10 µM.

As for `CC(=O)N(c1ccccc1)C1CC(C)N(C(=O)c2sc(-c3ccccc3)nc2C)c2ccccc21` (stereo not shown) [Compound A-156], the inhibition constant Ki is < 10 µM.

As for `COc1ccc(C(=O)N2c3ccccc3[C@H](N(C(C)=O)c3ccc(C(=O)CCC(=O)O)c(Cl)c3)C[C@@H]2C)cc1` [Compound D-2, (2S,4R)-4-(4-{Acetyl-[1-(4-methoxy-benzoyl)-2-methyl-1,2,3,4-tetrahydro-quinolin-4-yl]-amino}-2-chloro-phenyl)-4-oxo-butyric acid], the Ki is < 10 µM.

`CC(=O)N(c1ccccc1)[C@@H]1C[C@H](C)N(C(=O)c2sc(-c3ccccc3)nc2C)c2ccccc21` (racemic) [Compound A-16, (±)-Cis-N-[2-methyl-1-(4-methyl-2-phenyl-thiazole-5-carbonyl)-1,2,3,4-tetrahydro-quinolin-4-yl]-N-phenyl-acetamide]: the Ki is < 10 µM.

On to `C=CCC(=O)N(c1ccccc1)[C@@H]1C[C@H](C)N(C(=O)c2ccc(F)cc2)c2ccccc21` (racemic) [Compound A-147, (±)-Cis-but-3-enoic acid [1-(4-fluoro-benzoyl)-2-methyl-1,2,3,4-tetrahydro-quinolin-4-yl]-phenyl-amide], for which the Ki was < 10 µM.

For the molecule `CCC(=O)N(c1ccc(Cl)cc1)C1CC(C)N(C(=O)c2ccc(F)cc2)c2ccc(/C=C/C(=O)O)cc21` (racemic) [Compound B-73, (±)-Cis-3-[4-[(4-chloro-phenyl)-propionyl-amino]-1-(4-fluoro-benzoyl)-2-methyl-1,2,3,4-tetrahydro-quinolin-6-yl]-acrylic acid], the Ki was < 10 µM.

As for `COc1cccc(C(=O)N2c3ccccc3[C@H](N(C(=O)c3ccno3)c3ccccc3)C[C@@H]2C)c1` (racemic) [Compound A-55, (±)-Cis-isoxazole-5-carboxylic acid [1-(3-methoxy-benzoyl)-2-methyl-1,2,3,4-tetrahydro-quinolin-4-yl]-phenyl-amide], the Ki is < 10 µM.

On to `CCC(=O)N(c1ccc(Cl)cc1)[C@@H]1C[C@H](c2ccccc2)N(C(=O)c2ccc(F)cc2)c2ccccc21` (racemic) [Compound B-108, (±)-Cis-N-(4-chloro-phenyl)-N-[1-(4-fluoro-benzoyl)-2-phenyl-1,2,3,4-tetrahydro-quinolin-4-yl]-propionamide], for which the Ki was < 10 µM.

`CCC(=O)N(c1ccccc1)[C@@H]1C[C@H](C)N(C(=O)c2cccc(Cl)c2)c2ccccc21` (racemic) [Compound A-35, (±)-Cis-N-[1-(3-chloro-benzoyl)-2-methyl-1,2,3,4-tetrahydro-quinolin-4-yl]-N-phenyl-propionamide]: the Ki is < 10 µM.

`CCC(=O)N(c1ccccc1)[C@H]1C[C@@H](C)N(C(=O)c2ccc(N3CCOCC3)cc2)c2ccccc21` [Compound A-120, (2R,4S)-cis-N-[2-methyl-1-(4-morpholin-4-yl-benzoyl)-1,2,3,4-tetrahydro-quinolin-4-yl]-N-phenyl-propionamide]: the inhibitory constant (Ki) was < 10 µM.

`CC(=O)N(c1ccccc1)[C@@H]1C[C@H](C)N(C(=O)c2cc(F)c(F)c(F)c2)c2ccccc21` (racemic) [Compound A-20, (±)-Cis-N-[2-methyl-1-(3,4,5-trifluoro-benzoyl)-1,2,3,4-tetrahydro-quinolin-4-yl]-N-phenyl-acetamide]: the Ki was < 10 µM.

As for `CCC(=O)N(c1ccc(Cl)cc1)[C@@H]1C[C@H](C)N(C(=O)c2ccc(F)cc2)c2ccc(N3CCOCC3)cc21` (racemic) [Compound B-70, (±)-Cis-N-(4-chloro-phenyl)-N-[1-(4-fluoro-benzoyl)-2-methyl-6-morpholin-4-yl-1,2,3,4-tetrahydro-quinolin-4-yl]-propionamide], the inhibition constant Ki is < 10 µM.

`COc1ccc(C(=O)N2c3ccccc3[C@H](N(C(C)=O)c3ccc(CC(=O)O)cc3)C[C@@H]2C)cc1` (racemic) [Compound B-39, (±)-Cis-(4-{acetyl-[1-(4-methoxy-benzoyl)-2-methyl-1,2,3,4-tetrahydro-quinolin-4-yl]-amino}-phenyl)-acetic acid]: the Ki was < 10 µM.

Turning to `CCC(=O)N(c1ccc(Cl)cc1)[C@@H]1C[C@H](C)N(C(=O)c2ccc(F)cc2)c2cccc(OC)c21` (racemic) [Compound B-86, (±)-Cis-N-(4-chloro-phenyl)-N-[1-(4-fluoro-benzoyl)-5-methoxy-2-methyl-1,2,3,4-tetrahydro-quinolin-4-yl]-propionamide], the inhibition constant Ki was < 10 µM.

In the case of `CCOCCOc1ccc2c(c1)C(N(C(=O)CC)c1ccc(Cl)cc1)CC(C)N2C(=O)c1ccc(F)cc1` (stereo not shown) [Compound B-68], the Ki was < 10 µM.
